# ChEMBL document CHEMBL5096164, “In Vivo Profiling of a Natural Alkaloid, Anatabine, in Rodents: Pharmacokinetics and Anti-Inflammatory Efficacy” (J Nat Prod, 2021)
# Activity calls are given as the source filed them. No cut-off for these calls is given here.
# What was measured:
# [1] = Clearance in Wistar rat plasma at 1 mg/kg, iv administered as bolus dose measured after 5 to 360 mins by LC-MS/MS analysis; format: ADME, organism-based; settings: in vivo, time 5-360 min
# [2] = Clearance in Wistar rat plasma at 2 mg/kg, iv administered as bolus dose measured after 5 to 360 mins by LC-MS/MS analysis; format: ADME, organism-based; settings: time 5-360 min
# [3] = Clearance in Wistar rat plasma at 5 mg/kg, ip administered as bolus dose measured after 5 to 360 mins by LC-MS/MS analysis; format: ADME, organism-based; settings: time 5-360 min
# [4] = Volume of distribution at steady state in Wistar rat plasma at 1 mg/kg, iv administered as bolus dose measured after 5 to 360 mins by LC-MS/MS analysis; format: ADME, organism-based; settings: time 5-360 min, read-out: Vdss
# [5] = Half life in Wistar rat plasma at 1 mg/kg, iv administered as bolus dose measured after 5 to 360 mins by LC-MS/MS analysis; format: ADME, organism-based; settings: time 5-360 min
# [6] = Half life in Wistar rat plasma at 2 mg/kg, iv administered as bolus dose measured after 5 to 360 mins by LC-MS/MS analysis; format: ADME, organism-based; settings: time 5-360 min
# [7] = Half life in Wistar rat plasma at 5 mg/kg, ip administered as bolus dose measured after 5 to 360 mins by LC-MS/MS analysis; format: ADME, organism-based; settings: time 5-360 min
# [8] = Cmax in Wistar rat plasma at 2 mg/kg, iv administered as bolus dose measured after 5 to 360 mins by LC-MS/MS analysis; format: ADME, organism-based; set-up: dose 2 mg/kg, time upper 360 min, time lower 5 min, route iv
# [9] = Cmax in Wistar rat plasma at 5 mg/kg, ip administered as bolus dose measured after 5 to 360 mins by LC-MS/MS analysis; format: ADME, organism-based; set-up: dose 5 mg/kg, time upper 360 min, time lower 5 min, route ip
# [10] = Tmax in Wistar rat plasma at 2 mg/kg, iv administered as bolus dose measured after 5 to 360 mins by LC-MS/MS analysis; format: ADME, organism-based; settings: time 5-360 min
# [11] = Tmax in Wistar rat plasma at 5 mg/kg, ip administered as bolus dose measured after 5 to 360 mins by LC-MS/MS analysis; format: ADME, organism-based; settings: time 5-360 min
# [12] = AUC in Wistar rat plasma at 1 mg/kg, iv administered as bolus dose measured after 5 to 360 mins by LC-MS/MS analysis; format: ADME, organism-based; set-up: time upper 360 min, time lower 5 min, dose 1 mg/kg, route iv
# [13] = AUC in Wistar rat plasma at 2 mg/kg, iv administered as bolus dose measured after 5 to 360 mins by LC-MS/MS analysis; format: ADME, organism-based; set-up: time lower 5 min, dose 2 mg/kg, time upper 360 min, route iv
# [14] = AUC in Wistar rat plasma at 5 mg/kg, ip administered as bolus dose measured after 5 to 360 mins by LC-MS/MS analysis; format: ADME, organism-based; set-up: dose 5 mg/kg, time upper 360 min, time lower 5 min, route ip
# [15] = Bioavailability in Wistar rat plasma at 1 mg/kg, iv administered as bolus dose measured after 5 to 360 mins by LC-MS/MS analysis; format: ADME, organism-based; settings: in vivo, time 5-360 min
# [16] = Bioavailability in Wistar rat plasma at 2 mg/kg, iv administered as bolus dose measured after 5 to 360 mins by LC-MS/MS analysis; format: ADME, organism-based; settings: time 5-360 min
# [17] = Bioavailability in Wistar rat plasma at 5 mg/kg, ip administered as bolus dose measured after 5 to 360 mins by LC-MS/MS analysis; format: ADME, organism-based; settings: time 5-360 min
# [18] = Clearance in C57BL/6 mouse plasma at 2 mg/kg, ip measured after 3 to 240 mins by LC-MS/MS analysis; format: ADME, organism-based; settings: time 3-240 min
# [19] = Half life in C57BL/6 mouse plasma at 2 mg/kg, ip measured after 3 to 240 mins by LC-MS/MS analysis; format: ADME, organism-based; settings: time 3-240 min
# [20] = Half life in C57BL/6 mouse brain at 2 mg/kg, ip measured after 3 to 240 mins by LC-MS/MS analysis; format: ADME, organism-based; settings: time 3-240 min
# [21] = Cmax in C57BL/6 plasma at 2 mg/kg, ip measured after 3 to 240 mins by LC-MS/MS analysis; format: ADME, organism-based; set-up: time 3-240 min, dose 2 mg/kg, route ip; settings: C57BL/6, mouse
# [22] = Cmax in C57BL/6 brain at 2 mg/kg, ip measured after 3 to 240 mins by LC-MS/MS analysis; format: ADME, organism-based; set-up: time upper 240 min, time lower 3 min, dose 2 mg/kg, route ip; settings: C57BL/6, mouse
# [23] = Tmax in C57BL/6 plasma at 2 mg/kg, ip measured after 3 to 240 mins by LC-MS/MS analysis; format: ADME, organism-based; settings: C57BL/6, mouse, time 3-240 min
# [24] = Tmax in C57BL/6 brain at 2 mg/kg, ip measured after 3 to 240 mins by LC-MS/MS analysis; format: ADME, organism-based; settings: C57BL/6, mouse, time 3-240 min
# [25] = AUC in C57BL/6 plasma at 2 mg/kg, ip measured after 3 to 240 mins by LC-MS/MS analysis; format: ADME, organism-based; set-up: time 3-240 min, dose 2 mg/kg, route ip; settings: C57BL/6, mouse
# [26] = AUC in C57BL/6 brain at 2 mg/kg, ip measured after 3 to 240 mins by LC-MS/MS analysis; format: ADME, organism-based; set-up: time 3-240 min, dose 2 mg/kg, route ip; settings: C57BL/6, mouse
# [27] = Ratio of Cmax in C57BL/6 mouse brain to plasma at 2 mg/kg, ip measured after 3 to 240 mins by LC-MS/MS analysis; format: ADME, organism-based; settings: brain and plasma, time 3-240 min, read-out: BPR
# Mus musculus [28] = assay: Antiinflammatory activity in ip induced Wistar mouse model of carrageenan-induced paw edema assessed as reduction in paw thickness administered 10 mins prior to carrageenan induction and measured upto 5 hrs; format: functional, organism-based; settings: dose 1-5 mg/kg, time 310.0 min, DDE = dose-dependent effect
# Mus musculus [29] = assay: Antiinflammatory activity in ip /LPS induced mouse model assessed as reduction in tumor necrosis factor alpha level in plasma preincubated for 1 hr followed by LPS stimulation and measured after 2 hrs by ELISA method; format: functional, organism-based; settings: dose 1-5 mg/kg, DDE = dose-dependent effect
# Mus musculus [30] = assay: Antiinflammatory activity ip/LPS induced mouse model assessed as reduction in IL-6 level in plasma preincubated for 1 hr followed by LPS stimulation and measured after 2 hrs by ELISA method; format: functional, organism-based; settings: dose 1-5 mg/kg, time 3.0 hrs, DDE = dose-dependent effect
# Mus musculus [31] = assay: Antiinflammatory activity in LPS induced mouse model assessed as reduction in tumor necrosis factor alpha level in plasma at 5 mg/kg, ip preincubated for 1 hr followed by LPS stimulation and measured after 2 hrs by ELISA method relative to control; format: functional; set-up: scale not given: the % may be the effect or the level left
# Mus musculus [32] = assay: Antiinflammatory activity LPS induced mouse model assessed as reduction in IL-6 level in plasma at 5 mg/kg, ip preincubated for 1 hr followed by LPS stimulation and measured after 2 hrs by ELISA method relative to control; format: functional; set-up: scale not given: the % may be the effect or the level left
# Mus musculus [33] = assay: Antiinflammatory activity LPS induced mouse model assessed as reduction in granulocyte-macrophage colony stimulating factor at 1 to 5 mg/kg, ip preincubated for 1 hr followed by LPS stimulation and measured after 2 hrs by luminex xMAP bead based assay; format: functional, organism-based; settings: dose 1-5 mg/kg, time 3.0 hrs
# Mus musculus [34] = assay: Antiinflammatory activity LPS induced mouse model assessed as reduction in IL-1 beta at 1 to 5 mg/kg, ip preincubated for 1 hr followed by LPS stimulation and measured after 2 hrs by luminex xMAP bead based assay; format: functional, organism-based; settings: dose 1-5 mg/kg, time 3.0 hrs
# Mus musculus [35] = assay: Antiinflammatory activity LPS induced mouse model assessed as reduction in IL-5 at 1 to 5 mg/kg, ip preincubated for 1 hr followed by LPS stimulation and measured after 2 hrs by luminex xMAP bead based assay; format: functional, organism-based; settings: dose 1-5 mg/kg, time 3.0 hrs
structure (smiles),measurement,setting,value
C1=CCC(c2cccnc2)NC1 (stereo not given),CL,[1],0.00811 mL/min/kg
same,clearance,[2],8.11 mL/min/kg
same,CL/F,[3],8.11 mL/min/kg
same,Vd,[4],1.23 L/kg
same,half-life,[5],68.4 min
same,half-life,[6],83.4 min
same,half-life,[7],83.4 min
same,Cmax,[8],1180 ng/mL
same,Cmax,[9],2730 ng/mL
same,Tmax,[10],9.6 min
same,Tmax,[11],9.6 min
same,AUC,[12],1990 ng·h/mL
same,AUC,[13],2730 ng·h/mL
same,AUC,[14],6820 ng·h/mL
same,F,[15],100%
same,bioavailability,[16],68.6%
same,bioavailability,[17],68.6%
same,CL/F,[18],78.6 mL/min/kg
same,half-life,[19],12.6 min
same,half-life,[20],21.6 min
same,Cmax,[21],1370 ng/mL
same,Cmax,[22],3380 ng/mL
same,Tmax,[23],1.8 min
same,Tmax,[24],7.2 min
same,AUC,[25],430 ng·h/mL
same,AUC,[26],1490 ng·h/mL
same,Kp,[27],2.5
same,Activity,Mus musculus [28],Dde
same,Activity,Mus musculus [29],Dde
same,Activity,Mus musculus [30],Dde
same,Activity,Mus musculus [31],34%
same,Activity,Mus musculus [32],47.2%
same,Activity,Mus musculus [33],Active
same,Activity,Mus musculus [34],Active
same,Activity,Mus musculus [35],Active
